Laboratory results: patent publication US20240287138A1, “CYCLIC PEPTIDES FOR INHIBITING TNF RECEPTOR 1 ACTIVITY” (Merck Sharp & Dohme LLC, priority 2023, published 2024)
Numbered stars: 1 amine (or outer) side, 2 acyl side, 3 side chain; on linkers, the order of the positions; unused ones are H or OH. Bridge positions count the residues as written; N and C are the ends. Square brackets hold non-standard residues; d marks the D form. Peptide text beside a SMILES is read from it. Trp(βS-Me,7-OMe) = COc1cccc2c([C@H](C)[C@H](N)C(=O)O)c[nH]c12; Trp(1-CH2COOH) = N[C@@H](Cc1cn(CC(=O)O)c2ccccc12)C(=O)O; Trp(βS-Me) = C[C@@H](c1c[nH]c2ccccc12)[C@H](N)C(=O)O; Phe(4-SO3H) = N[C@@H](Cc1ccc(S(=O)(=O)O)cc1)C(=O)O; Phe(4-NHCONH2) = NC(=O)Nc1ccc(C[C@H](N)C(=O)O)cc1; Trp(7-Br) = N[C@@H](Cc1c[nH]c2c(Br)cccc12)C(=O)O; Trp(7-CN) = N#Cc1cccc2c(C[C@H](N)C(=O)O)c[nH]c12; Trp(7-Cl) = N[C@@H](Cc1c[nH]c2c(Cl)cccc12)C(=O)O; Ala(piperazin-1-yl) = N[C@@H](CN1CCNCC1)C(=O)O; Phe(3-CONH2) = NC(=O)c1cccc(C[C@H](N)C(=O)O)c1; Phe(4-CONH2) = NC(=O)c1ccc(C[C@H](N)C(=O)O)cc1; Phe(4-COOH) = N[C@@H](Cc1ccc(C(=O)O)cc1)C(=O)O; 4Pal(3S-Me) = C[C@@H](c1ccncc1)[C@H](N)C(=O)O; Trp(7-aza) = N[C@@H](Cc1c[nH]c2ncccc12)C(=O)O; dPro(4S-NH2) = N[C@@H]1CN[C@@H](C(=O)O)C1; Pip(5R-OH) = O=C(O)[C@@H]1CC[C@@H](O)CN1; αMeW = C[C@](N)(Cc1c[nH]c2ccccc12)C(=O)O; X1 = O=C([C@@H]1CC[C@H](N[*:1])C1)[*:2]; Orn(N3) = [N-]=[N+]=NCCC[C@H](N)C(=O)O; dPro(3S-OH) = O=C(O)[C@@H]1NCC[C@@H]1O; Pip(4-aza) = O=C(O)[C@@H]1CNCCN1; 3Pal = N[C@@H](Cc1cccnc1)C(=O)O; 4Pal = N[C@@H](Cc1ccncc1)C(=O)O; NMeE = CN[C@@H](CCC(=O)O)C(=O)O; dHyp = O=C(O)[C@H]1C[C@H](O)CN1; X61 = O=C(CN(CCCO)[*:1])[*:2]; Ahp(2) = CCCCC[C@H](N)C(=O)O; Pip = O=C(O)[C@@H]1CCCCN1; αMeS = C[C@](N)(CO)C(=O)O; Nle = CCCC[C@H](N)C(=O)O; Dap = NC[C@H](N)C(=O)O; Sar = CNCC(=O)O

Each compound was assayed against T1, human soluble TNFR1 (sTNFR1) (Homo sapiens, UniProt P19438) (assay: Human sTNFR1-peptide displacement assay (LanthaScreen Eu TR-FRET binding assay)).
T1 construct: made in house; host or cells: Sf21 (baculovirus)
T1 sequence (P19438 with tags, fused parts or gaps): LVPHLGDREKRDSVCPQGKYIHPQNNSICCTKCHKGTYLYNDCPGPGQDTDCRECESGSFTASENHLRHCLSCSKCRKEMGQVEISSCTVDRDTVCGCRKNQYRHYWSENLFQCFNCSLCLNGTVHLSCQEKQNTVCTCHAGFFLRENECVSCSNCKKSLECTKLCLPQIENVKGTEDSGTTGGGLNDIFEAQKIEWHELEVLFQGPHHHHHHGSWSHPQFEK
Protocol: A. Procedure for Human sTNFR1-Peptide Displacement Assay
The affinity was determined using LanthaScreen Eu-based time-resolved fluorescence resonance energy transfer (TR-FRET)-based binding assay.
A TR-FRET assay measuring the displacement of biotinylated peptide SEQ ID NO. 1 from human soluble TNFR1 (sTNFR1) in a pre-formed complex by a macrocyclic peptide yields the affinity (Kd^app) of the cyclic peptide for sTNFR1. The reagents for the assay include: the C′-terminally 6His-tagged sTNFR1 (residues 1-211) protein purified from a Sf21 baculovirus expression system, the biotin-tagged B0372 peptide described in section “Preparation of Final Compounds”, part E, the LanthaScreen™ anti-His Tag Europium donor (Life Technologies Corporation (San Diego, CA), cat. #PV5597), and a streptavidin-conjugate Alexa Fluor™ 647 acceptor (Invitrogen (Waltham, MA), cat. #S32357). Time-resolved TR-FRET is achieved when sTNFR1 is bound to biotinylated peptide SEQ ID NO. 1 through coupling of the donor and acceptor FRET pair.
100 nM biotinylated peptide SEQ ID NO. […] 100 nM biotinylated peptide SEQ ID NO. 1 was chosen as it reflects the ˜Kd for this complex. After 30 min at ambient temperature, each test peptide (2 mM stock in DMSO) is titrated in a 20 point, ˜3-fold discrete dose-response using an acoustic-dispense liquid handler. Specifically, 80 nL of peptide/DMSO is transferred into a ProxiPlate-384 Plus 384-well assay plate (PerkinElmer, cat. #6008289). To this plate, 8 μL of the previously formed sTNFR 1-biotinylated peptide SEQ ID NO. 1 complex is added and allowed to reach binding equilibrium with the test peptide at ambient temperature for 90 min.
The TR-FRET signal is measured with the following EnVision® settings: excitation laser at 337 nm; emission1=615 nm, emission2=665 nm, LANCE/DELFIA dichroic mirror, delay time=[…]. The signal of each well is determined as the ratio of the emission at 665 nm to that at 615 nm. Percent displacement is determined by normalization to control wells containing DMSO (0%) or a saturating concentration of a displaceable peptide (100%). The %-effect as a function of peptide concentration is fit to a five-parameter logistic fit based on the Morrison equation to account for tight binding kinetics.

**Q.** With `CCCCC[C@@H]1NC(=O)[C@@H]2CC[C@@H](C2)NC(=O)[C@H]([C@@H](C)c2c[nH]c3c(OC)cccc23)NC(=O)CN(C)C(=O)[C@H](Cc2cccc(C(N)=O)c2)NC(=O)[C@H](Cc2ccc(C(=O)O)cc2)NC(=O)[C@](C)(CO)NC(=O)[C@H](Cc2c[nH]c3c(Br)cccc23)NC(=O)[C@H](Cc2ccc(C(=O)O)cc2)NC(=O)[C@H](CC(N)=O)NC(=O)[C@H]2C[C@H](O)CN2C(=O)[C@H](Cc2c[nH]c3ccccc23)NC(=O)[C@@H]2CNCCN2C(=O)[C@H](Cc2ccncc2)NC1=O` [SEQ ID NO. 85] (cyclo([4Pal][Pip(4-aza)]W[dHyp]N[Phe(4-COOH)][Trp(7-Br)][αMeS][Phe(4-COOH)][Phe(3-CONH2)][Sar][Trp(βS-Me,7-OMe)][X1][Ahp(2)])) as the compound, how does the Kd read?
**A.** 0.11 nM

**Q.** `C[C@@H](c1c[nH]c2ccccc12)[C@@H]1NC(=O)[C@H](CN)NC(=O)[C@H](Cc2ccc(O)cc2)NC(=O)[C@H](CCCN=[N+]=[N-])NC(=O)CSC[C@@H](C(N)=O)NC(=O)[C@](C)(Cc2c[nH]c3ccccc23)NC(=O)CN(C)C(=O)[C@H](Cc2c[nH]cn2)NC(=O)[C@H](Cc2ccc(C(=O)O)cc2)NC(=O)[C@](C)(CO)NC(=O)[C@H](Cc2c[nH]c3c(Cl)cccc23)NC(=O)[C@H](Cc2ccncc2)NC(=O)[C@H](CC(N)=O)NC(=O)[C@H]2CCCN2C1=O` [SEQ ID NO. 146] ({CH2CO}-[Orn(N3)]Y[Dap][Trp(βS-Me)][dP]N[4Pal][Trp(7-Cl)][αMeS][Phe(4-COOH)]H[Sar][αMeW]C-NH2; thioether N-14) was tested. Which IC50 did it give?
**A.** 0.59 nM

**Q.** Which Kd does the source give for `CCCCC[C@@H]1NC(=O)[C@@H]2CC[C@@H](C2)NC(=O)[C@H]([C@@H](C)c2c[nH]c3c(OC)cccc23)NC(=O)CN(C)C(=O)[C@H](Cc2cn(CC(=O)O)c3ccccc23)NC(=O)[C@H](Cc2ccc(C(N)=O)cc2)NC(=O)[C@](C)(CO)NC(=O)[C@H](Cc2c[nH]c3c(C#N)cccc23)NC(=O)[C@H](Cc2ccc(C(=O)O)cc2)NC(=O)[C@H](CC(N)=O)NC(=O)[C@H]2C[C@H](N)CN2C(=O)[C@H](Cc2c[nH]c3ccccc23)NC(=O)[C@@H]2CC[C@@H](O)CN2C(=O)[C@H](Cc2ccncc2)NC1=O` [SEQ ID NO. 150] (cyclo([4Pal][Pip(5R-OH)]W[dPro(4S-NH2)]N[Phe(4-COOH)][Trp(7-CN)][αMeS][Phe(4-CONH2)][Trp(1-CH2COOH)][Sar][Trp(βS-Me,7-OMe)][X1][Ahp(2)])) here?
**A.** 0.23 nM

**Q.** For `CCCC[C@@H]1NC(=O)[C@@H]2CC[C@@H](C2)NC(=O)[C@H]([C@@H](C)c2c[nH]c3c(OC)cccc23)NC(=O)CN(C)C(=O)[C@H](Cc2ccc(O)cc2)NC(=O)[C@H](Cc2ccc(C(N)=O)cc2)NC(=O)[C@](C)(CO)NC(=O)[C@H](Cc2c[nH]c3c(Cl)cccc23)NC(=O)[C@H](Cc2ccc(NC(N)=O)cc2)NC(=O)[C@H](CC(N)=O)NC(=O)[C@H](CCC(=O)O)N(C)C(=O)[C@H](Cc2c[nH]c3ccccc23)NC(=O)[C@@H]2CC[C@@H](O)CN2C(=O)[C@H](Cc2ccncc2)NC1=O` [SEQ ID NO. 165] (cyclo([4Pal][Pip(5R-OH)]W[NMeE]N[Phe(4-NHCONH2)][Trp(7-Cl)][αMeS][Phe(4-CONH2)]Y[Sar][Trp(βS-Me,7-OMe)][X1][Nle])), which Kd is on record?
**A.** 0.18 nM

**Q.** Which results are given for `CCCC[C@@H]1NC(=O)CSC[C@@H](C(N)=O)NC(=O)[C@H]([C@@H](C)c2c[nH]c3c(OC)cccc23)NC(=O)CN(C)C(=O)[C@H](Cc2ccc(O)cc2)NC(=O)[C@H](Cc2ccc(C(=O)O)cc2)NC(=O)[C@](C)(CO)NC(=O)[C@H](Cc2c[nH]c3c(Cl)cccc23)NC(=O)[C@H](Cc2ccncc2)NC(=O)[C@H](CC(N)=O)NC(=O)CN(CCCO)C(=O)[C@H](Cc2c[nH]c3ncccc23)NC(=O)[C@@H]2CCCCN2C(=O)[C@H](Cc2ccncc2)NC1=O` [SEQ ID NO. 170] ({CH2CO}-[Nle][4Pal][Pip][Trp(7-aza)][X61]N[4Pal][Trp(7-Cl)][αMeS][Phe(4-COOH)]Y[Sar][Trp(βS-Me,7-OMe)]C-NH2; thioether N-14)?
**A.** IC50: 0.6 nM; Kd: 0.56 nM

**Q.** Which Kd does the source give for `CCCC[C@@H]1NC(=O)[C@@H]2CC[C@@H](C2)NC(=O)[C@H]([C@@H](C)c2c[nH]c3c(OC)cccc23)NC(=O)CN(C)C(=O)[C@H](Cc2ccc(O)cc2)NC(=O)[C@H](Cc2ccc(C(=O)O)cc2)NC(=O)[C@](C)(CO)NC(=O)[C@H](Cc2c[nH]c3c(Cl)cccc23)NC(=O)[C@H](Cc2ccc(S(=O)(=O)O)cc2)NC(=O)[C@H](CC(N)=O)NC(=O)[C@H](CCC(=O)O)N(C)C(=O)[C@H](Cc2c[nH]c3ccccc23)NC(=O)[C@@H]2CNCCN2C(=O)[C@H](Cc2ccncc2)NC1=O` [SEQ ID NO. 173] (cyclo([4Pal][Pip(4-aza)]W[NMeE]N[Phe(4-SO3H)][Trp(7-Cl)][αMeS][Phe(4-COOH)]Y[Sar][Trp(βS-Me,7-OMe)][X1][Nle])) here?
**A.** 0.26 nM

**Q.** `CCCC[C@@H]1NC(=O)[C@@H]2CC[C@@H](C2)NC(=O)[C@H]([C@@H](C)c2c[nH]c3c(OC)cccc23)NC(=O)CN(C)C(=O)[C@H](Cc2ccc(O)cc2)NC(=O)[C@H](Cc2ccc(C(=O)O)cc2)NC(=O)[C@](C)(CO)NC(=O)[C@H](Cc2c[nH]c3c(Cl)cccc23)NC(=O)[C@H](Cc2ccncc2)NC(=O)[C@H](CC(N)=O)NC(=O)[C@H]2[C@@H](O)CCN2C(=O)[C@H](Cc2c[nH]c3ccccc23)NC(=O)[C@@H]2CNCCN2C(=O)[C@H](Cc2ccncc2)NC1=O` [SEQ ID NO. 192] (cyclo([4Pal][Trp(7-Cl)][αMeS][Phe(4-COOH)]Y[Sar][Trp(βS-Me,7-OMe)][X1][Nle][4Pal][Pip(4-aza)]W[dPro(3S-OH)]N)) was tested. Which Kd did it give?
**A.** 0.24 nM

**Q.** With `CCCCC[C@@H]1NC(=O)CSC[C@@H](C(N)=O)NC(=O)[C@](C)(Cc2c[nH]c3ccccc23)NC(=O)CN(C)C(=O)[C@H](Cc2cccnc2)NC(=O)[C@H](Cc2ccc(C(=O)O)cc2)NC(=O)[C@](C)(CO)NC(=O)[C@H](Cc2c[nH]c3c(Cl)cccc23)NC(=O)[C@H](Cc2ccncc2)NC(=O)[C@H](CC(N)=O)NC(=O)[C@H]2CCCN2C(=O)[C@H]([C@@H](C)c2c[nH]c3ccccc23)NC(=O)[C@H](CN2CCNCC2)NC(=O)[C@H](Cc2ccc(O)cc2)NC1=O` [SEQ ID NO. 226] ({CH2CO}-[Ahp(2)]Y[Ala(piperazin-1-yl)][Trp(βS-Me)][dP]N[4Pal][Trp(7-Cl)][αMeS][Phe(4-COOH)][3Pal][Sar][αMeW]C-NH2; thioether N-14) as the compound, how does the IC50 read?
**A.** 1.16 nM

**Q.** With `CCCCC[C@@H]1NC(=O)[C@@H]2CC[C@@H](C2)NC(=O)[C@H]([C@@H](C)c2c[nH]c3c(OC)cccc23)NC(=O)CN(C)C(=O)[C@H](Cc2ccc(C(N)=O)cc2)NC(=O)[C@H](Cc2ccc(C(N)=O)cc2)NC(=O)[C@](C)(CO)NC(=O)[C@H](Cc2c[nH]c3c(C#N)cccc23)NC(=O)[C@H](Cc2ccc(C(=O)O)cc2)NC(=O)[C@H](CC(N)=O)NC(=O)[C@H]2C[C@H](O)CN2C(=O)[C@H](Cc2c[nH]c3ccccc23)NC(=O)[C@H]([C@@H](C)O)NC(=O)[C@H]([C@@H](C)c2ccncc2)NC1=O` [SEQ ID NO. 234] (cyclo([Ahp(2)][4Pal(3S-Me)]TW[dHyp]N[Phe(4-COOH)][Trp(7-CN)][αMeS][Phe(4-CONH2)][Phe(4-CONH2)][Sar][Trp(βS-Me,7-OMe)][X1])) as the compound, how does the Kd read?
**A.** 0.24 nM
